This passage reports clot lysis time results from patent US20170368037A1, “PHARMACEUTICAL COMPOSITION FOR PROMOTION OF FIBRINOLYSIS” (Daiichi Sankyo Company, Limited, priority 2014, published 2017).

For assay [1], the system named is fibrinolysis induced by tPA in human plasma. Description: Fibrinolysis assay (clot lysis time in human plasma containing tPA and TM), Example 2. Particulars: tPA 180 ng/mL, TM 0.1 nM, vs control. Type of assay: biochemical. On the procedure: Edoxaban was dissolved in DMSO to prepare a 10 mM solution, which was then stored at −30° C. Before use, the frozen product was thawed and diluted with DMSO and saline (DMSO concentration in test substance solution: 1.92%).
PCI (Sigma-Aldrich, Co. LLC.) was dissolved in Hepes buffer to prepare a 4.8 mg/mL solution, which was then stored at −30° C. Before use, the frozen product was thawed and diluted with Hepes buffer.
Hepes buffer, tPA solution, and PPP reagent were prepared in the same way as in Example 1(2). […]
70 μL of the human plasma sample (containing tPA and TM), 5 μL each of varying concentrations of the edoxaban solution, 5 μL of PCI, and 20 μL of the PPP reagent were added to each well of a 96-well plate (Sumilon Proteosave SS 96F plate, MS-8296F). […] Absorbance at 405 nm was measured every 30 seconds using SpectraMAX 384 Plus prewarmed to 37° C. The time for the absorbance to decrease to ½ of the peak from the time to reach ½ of the peak was calculated using SoftMax Pro 5.4.1 and used as clot lysis time. […]
Two experiments were conducted on each of 3 lots of human plasma (n=6). The basic statistics (mean, standard deviation, and standard error) of the clot lysis time were calculated, and the results were indicated by mean±standard error (SEM). […] Concentration dependence was evaluated by Spearman's rank correlation coefficient hypothesis test. […]

Assay [2] shares this test system. Description: Fibrinolysis assay (clot lysis time induced by tPA in human plasma), Example 1. Type of assay: biochemical. Conditions: tPA 180 ng/mL, edoxaban 18.8 ng/mL to 300 ng/mL, vs control. On the procedure:
Edoxaban was dissolved in dimethyl sulfoxide (hereinafter, also referred to as “DMSO”) (Wako Pure Chemical Industries, Ltd.) to prepare a 10 mM solution, which was then stored at −30° C. Before use, the frozen product was thawed and diluted with DMSO and saline (Otsuka Pharmaceutical Factory, Inc.) (DMSO concentration in test substance solution: 0.96%, final DMSO concentration in reaction system: 0.08%).
Hepes buffer: Hepes (Sigma-Aldrich, Co. LLC.) and NaCl (Nacalai Tesque Inc.) were dissolved at 20 mM and 140 mM, respectively, in distilled water, and the solution was adjusted to pH 7.4 using a 1 mol/L sodium hydroxide solution (Nacalai Tesque Inc.). […]
70 μL of the human plasma sample (containing tPA), 10 μL each of varying concentrations of the edoxaban solution, and 20 μL of the PPP reagent were added to each well of a 96-well plate (Sumilon Proteosave SS 96F plate, MS-8296F). […] Absorbance at 405 nm was measured every 30 seconds using SpectraMAX 384 Plus (Molecular Devices, LLC.) prewarmed to 37° C. The time for the absorbance to return to ½ of the peak from the time to reach ½ of the peak was calculated using SoftMax Pro 5.4.1 (Molecular Devices, LLC.) and used as clot lysis time. […]
Two experiments were conducted on each of 3 lots of human plasma (n=6). […] The calculated P value was rounded off and indicated by three decimal places. […]

On to `CN1CCc2nc(C(=O)N[C@@H]3C[C@@H](C(=O)N(C)C)CC[C@@H]3NC(=O)C(=O)Nc3ccc(Cl)cn3)sc2C1` [Edoxaban, N-(5-chloropyridin-2-yl)-N′-[(1S,2R,4S)-4-(dimethylcarbamoyl)-2-(5-methyl-4,5,6,7-tetrahydro[1,3]thiazolo[5,4-c]pyridine-2-carboxamido)cyclohexyl]oxamide], for which the clot lysis time result in assay [1] (edoxaban alone 150 and 300 ng/mL) is given as “significantly shortened the clot lysis time in a concentration-dependent manner”; in assay [2] it was “significantly shortened the clot lysis time in a concentration-dependent manner”. Turning to “PCI: carboxypeptidase inhibitor from potato tuber, a TAFIa inhibitor (Sigma-Aldrich) (QQHADPICNKPCKTHDDCSGAWFCQACWNSARTCGPYVG; UniProt P01075 1-39, looked up)”, in assay [1] (PCI alone 0.3 to 3 μg/mL), the clot lysis time entry is “significantly shortened the clot lysis time in a concentration-dependent manner”.
